Several values for one entry are separate records, joined by “and”; a condition that tells them apart may be missing. Equal entries are not always repeated. Toxic doses and inconclusive results are not listed.
Test system: BDF1 mice, P388 leukemia ip, median survival T/C
Assay: NCI In Vivo Anticancer Drug Screen. Data for tumor model P388 Leukemia (intraperitoneal) in B6D2F1 (BDF1) mice
Conditions: endpoint: median survival time, higher = longer survival
Outline: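 In tumour-bearing mice, survival after compound treatment is set against the vehicle group and given as a quotient.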

[1] = dose: 50.0 mg/kg/injection, schedule: Q01DX009 (ip), vehicle: saline
[2] = dose: 50.0 mg/kg/injection, schedule: Q04DX003 (ip), vehicle: saline
[3] = dose: 100.0 mg/kg/injection, schedule: Q04DX003 (ip), vehicle: saline
[4] = dose: 100.0 mg/kg/injection, schedule: Q01DX009 (ip), vehicle: saline
[5] = dose: 200.0 mg/kg/injection, schedule: Q01DX009 (ip), vehicle: saline
[6] = dose: 200.0 mg/kg/injection, schedule: Q04DX003 (ip), vehicle: saline
[7] = dose: 50.0 mg/kg/injection, schedule: Q01DX009 (ip), vehicle: saline with Tween-80
[8] = dose: 100.0 mg/kg/injection, schedule: Q01DX009 (ip), vehicle: saline with Tween-80
[9] = dose: 200.0 mg/kg/injection, schedule: Q01DX009 (ip), vehicle: saline with Tween-80

Structure (SMILES): ClCCN(CCCl)CCNc1ccnc2cc(Cl)ccc12
- T/C (dose: 0.13 mg/kg/injection, schedule: Q01DX009 (ip), vehicle: saline): 105 % of control
- T/C (dose: 0.5 mg/kg/injection, schedule: Q01DX009 (ip), vehicle: saline): 100 % of control
- T/C (dose: 1.0 mg/kg/injection, schedule: Q04DX003 (ip), vehicle: saline): 172 % of control
- T/C (dose: 1.32 mg/kg/injection, schedule: Q01DX009 (ip), vehicle: saline): 154 % of control
- T/C (dose: 2.0 mg/kg/injection, schedule: Q01DX009 (ip), vehicle: saline): 154 % of control
- T/C (dose: 2.0 mg/kg/injection, schedule: Q04DX003 (ip), vehicle: saline): 109 % of control
- T/C (dose: 3.0 mg/kg/injection, schedule: Q01DX009 (ip), vehicle: saline): 181 % of control
- T/C (dose: 4.0 mg/kg/injection, schedule: Q04DX003 (ip), vehicle: saline): 154 % of control
- T/C (dose: 6.0 mg/kg/injection, schedule: Q04DX003 (ip), vehicle: saline): 159 % of control
- T/C (dose: 12.5 mg/kg/injection, schedule: Q04DX003 (ip), vehicle: saline): 163 % of control
- T/C (dose: 25.0 mg/kg/injection, schedule: Q04DX003 (ip), vehicle: saline): 86 % of control

Structure (SMILES): O=C(O)C1CCSS1 (stereo not drawn)
- T/C (dose: 0.19 mg/kg/injection, schedule: Q01DX009 (ip), vehicle: saline): 100 % of control
- T/C (dose: 0.39 mg/kg/injection, schedule: Q01DX009 (ip), vehicle: saline): 91 % of control
- T/C (dose: 0.78 mg/kg/injection, schedule: Q01DX009 (ip), vehicle: saline): 90 % of control and 117 % of control
- T/C (dose: 1.56 mg/kg/injection, schedule: Q01DX009 (ip), vehicle: saline): 96 % of control and 99 % of control
- T/C (dose: 3.12 mg/kg/injection, schedule: Q01DX009 (ip), vehicle: saline): 94 % of control
- T/C (dose: 6.25 mg/kg/injection, schedule: Q01DX009 (ip), vehicle: saline): 94 % of control
- T/C (dose: 12.5 mg/kg/injection, schedule: Q01DX009 (ip), vehicle: saline): 102 % of control and 106 % of control and 108 % of control
- T/C [1]: 87 % of control and 89 % of control
- T/C [2]: 103 % of control
- T/C [3]: 101 % of control

Structure (SMILES): COc1ccc(/C=C/c2ccc3ccccc3[n+]2C)c(OC)c1OC
- T/C (dose: 5.0 mg/kg/injection, schedule: Q01DX009 (ip), vehicle: Klucel (hydroxypropylcellulose) (HPC)): 109 % of control

Structure (SMILES): CC(=O)c1ccc[n+](C)c1
- T/C [4]: 100 % of control
- T/C [5]: 95 % of control

Structure (SMILES): N#CCc1ccc2c(c1)[nH]c1ccccc12
- T/C (dose: 50.0 mg/kg/injection, schedule: Q04DX003 (ip), vehicle: saline sonified): 104 % of control
- T/C (dose: 100.0 mg/kg/injection, schedule: Q04DX003 (ip), vehicle: saline sonified): 109 % of control
- T/C (dose: 200.0 mg/kg/injection, schedule: Q04DX003 (ip), vehicle: saline sonified): 104 % of control

Structure (SMILES): CN1CCC=C(C(=O)N(c2ccccc2)c2ccccc2)C1
- T/C [2]: 95 % of control
- T/C [3]: 100 % of control
- T/C [6]: 100 % of control

Structure (SMILES): O=C1CCS(=O)(=O)c2ccccc21
- T/C (dose: 6.25 mg/kg/injection, schedule: Q01DX009 (ip), vehicle: saline with Tween-80): 101 % of control
- T/C (dose: 12.5 mg/kg/injection, schedule: Q01DX009 (ip), vehicle: saline with Tween-80): 117 % of control
- T/C (dose: 25.0 mg/kg/injection, schedule: Q01DX009 (ip), vehicle: saline with Tween-80): 105 % of control
- T/C [7]: 98 % of control

Structure (SMILES): CN(C)c1ccc2c(Cl)cc(Cl)nc2c1
- T/C (dose: 12.5 mg/kg/injection, schedule: Q01DX009 (ip), vehicle: Klucel (hydroxypropylcellulose) (HPC)): 109 % of control
- T/C (dose: 25.0 mg/kg/injection, schedule: Q01DX009 (ip), vehicle: Klucel (hydroxypropylcellulose) (HPC)): 109 % of control
- T/C (dose: 50.0 mg/kg/injection, schedule: Q01DX009 (ip), vehicle: Klucel (hydroxypropylcellulose) (HPC)): 111 % of control
- T/C (dose: 100.0 mg/kg/injection, schedule: Q01DX009 (ip), vehicle: Klucel (hydroxypropylcellulose) (HPC)): 117 % of control
- T/C (dose: 200.0 mg/kg/injection, schedule: Q01DX009 (ip), vehicle: Klucel (hydroxypropylcellulose) (HPC)): 107 % of control

Structure (SMILES): COc1cc2c3c(c1)C(=O)CCN3CCC2
- T/C (dose: 50.0 mg/kg/injection, schedule: Q04DX003 (ip), vehicle: Klucel (hydroxypropylcellulose) (HPC)): 95 % of control
- T/C (dose: 100.0 mg/kg/injection, schedule: Q04DX003 (ip), vehicle: Klucel (hydroxypropylcellulose) (HPC)): 95 % of control
- T/C (dose: 200.0 mg/kg/injection, schedule: Q04DX003 (ip), vehicle: Klucel (hydroxypropylcellulose) (HPC)): 87 % of control

Structure (SMILES): C[N+](C)(Cn1ncc2cc([N+](=O)[O-])ccc21)Cn1ncc2cc([N+](=O)[O-])ccc21
- T/C (dose: 100.0 mg/kg/injection, schedule: Q04DX003 (ip), vehicle: saline with Tween-80): 113 % of control
- T/C (dose: 200.0 mg/kg/injection, schedule: Q04DX003 (ip), vehicle: saline with Tween-80): 104 % of control

Structure (SMILES): CCCOP(=O)(CCl)OCCC
- T/C [3]: 95 % of control
- T/C [6]: 100 % of control
- T/C (dose: 400.0 mg/kg/injection, schedule: Q04DX003 (ip), vehicle: saline): 100 % of control

Structure (SMILES): CN(C)[C@@H]1C(=O)C(C(N)=O)=C(O)[C@]2(O)C(=O)C3C(=O)c4c(O)ccc(Cl)c4[C@](C)(O)[C@H]3C[C@@H]12 (stereo partly drawn)
- T/C (dose: 33.0 mg/kg/injection, schedule: Q04DX003 (ip), vehicle: saline sonified): 115 % of control

Structure (SMILES): Cc1cc(C)c(C)c(C(O)(C(=O)O)c2ccccc2)c1 (stereo not drawn)
- T/C [8]: 87 % of control
- T/C [9]: 104 % of control

Structure (SMILES): CCC(=O)N(c1ccccc1)c1ccccc1
- T/C (dose: 75.0 mg/kg/injection, schedule: Q01DX009 (ip), vehicle: saline with Tween-80): 99 % of control
- T/C (dose: 150.0 mg/kg/injection, schedule: Q01DX009 (ip), vehicle: saline with Tween-80): 100 % of control
- T/C (dose: 300.0 mg/kg/injection, schedule: Q01DX009 (ip), vehicle: saline with Tween-80): 108 % of control

Structure (SMILES): CC1OC(OC2CCCc3ccccc32)CC(N)C1O (stereo not drawn)
- T/C (dose: 0.25 mg/kg/injection, schedule: Q01DX009 (ip), vehicle: water): 91 % of control and 94 % of control
- T/C (dose: 0.5 mg/kg/injection, schedule: Q01DX009 (ip), vehicle: water): 101 % of control and 115 % of control and 103 % of control
- T/C (dose: 1.0 mg/kg/injection, schedule: Q01DX009 (ip), vehicle: water): 110 % of control [middle of 4 runs]
- T/C (dose: 2.0 mg/kg/injection, schedule: Q01DX009 (ip), vehicle: water): 101 % of control and 102 % of control and 105 % of control
- T/C (dose: 4.0 mg/kg/injection, schedule: Q01DX009 (ip), vehicle: water): 109 % of control [middle of 5 runs]
- T/C (dose: 8.0 mg/kg/injection, schedule: Q01DX009 (ip), vehicle: water): 106 % of control and 111 % of control
- T/C (dose: 16.0 mg/kg/injection, schedule: Q01DX009 (ip), vehicle: water): 98 % of control and 108 % of control
- T/C (dose: 32.0 mg/kg/injection, schedule: Q01DX009 (ip), vehicle: water): 121 % of control

Structure (SMILES): COc1ccc(CC2Cc3cc(OC)c(OC)cc3C=N2)cc1OC (stereo not drawn)
- T/C [1]: 96 % of control
- T/C [4]: 107 % of control
- T/C [3]: 103 % of control
- T/C [6]: 111 % of control

Structure (SMILES): CCCCCCCCCCC(=O)CCCCC
- T/C (dose: 100.0 mg/kg/injection, schedule: Q01DX009 (ip), vehicle: other): 90 % of control
- T/C (dose: 200.0 mg/kg/injection, schedule: Q01DX009 (ip), vehicle: other): 100 % of control
- T/C (dose: 400.0 mg/kg/injection, schedule: Q01DX009 (ip), vehicle: other): 110 % of control

Structure (SMILES): O=C1C=CC(=O)N1CCc1ccccc1
- T/C (dose: 5.0 mg/kg/injection, schedule: Q01DX009 (ip), vehicle: saline with Tween-80): 100 % of control
- T/C (dose: 10.0 mg/kg/injection, schedule: Q01DX009 (ip), vehicle: saline with Tween-80): 92 % of control
- T/C (dose: 10.0 mg/kg/injection, schedule: Q04DX003 (ip), vehicle: saline with Tween-80): 108 % of control
- T/C (dose: 20.0 mg/kg/injection, schedule: Q01DX009 (ip), vehicle: saline with Tween-80): 92 % of control
- T/C (dose: 20.0 mg/kg/injection, schedule: Q04DX003 (ip), vehicle: saline with Tween-80): 108 % of control

Structure (SMILES): Cc1nnc2ncccn12
- T/C [1]: 96 % of control and 102 % of control and 106 % of control
- T/C [4]: 97 % of control and 102 % of control (2×)
- T/C [5]: 115 % of control
- T/C (dose: 400.0 mg/kg/injection, schedule: Q01DX009 (ip), vehicle: saline): 93 % of control

Structure (SMILES): CCCN(CCC)CC(O)c1cc2c(Cl)cc(Cl)cc2c2cc(C(F)(F)F)ccc12 (stereo not drawn)
- T/C [7]: 100 % of control
- T/C [8]: 100 % of control
- T/C [9]: 106 % of control

Structure (SMILES): CC1(C)OCC(C2OC3OC(C)(C)OC3C2O)O1 (stereo not drawn)
- T/C (dose: 20.0 mg/kg/injection, schedule: Q01DX009 (ip), vehicle: saline): 107 % of control
- T/C (dose: 40.0 mg/kg/injection, schedule: Q01DX009 (ip), vehicle: saline): 109 % of control
- T/C (dose: 80.0 mg/kg/injection, schedule: Q01DX009 (ip), vehicle: saline): 108 % of control

— PubChem BioAssay AID328 (DTP/NCI, 2004)
